Values quoted from earlier work in EP2727592A1 (Kücükgüzel, Sükriye Güniz, priority 2012, dated 2014).

Legend:
[1] = in vivo
[2] = not given; remark: listed apart in the source

## CC(=O)Nc1ccc(O)cc1 [PAR, 4-hydroxyacetanilide]
[1]
  eliminated without transformation: 5%
  turns into N-acetyl-p-benzoquinonimine (NAPQI) with oxidation: 5%
  turns into glucuronide and sulphate conjugate: 90%
Customary dose orally
  time to reach the highest amount of plasma concentration: 90 min
In vivo
  Elimination half life: 3.3 h
oral
  Oral bioavailability: 63 - 89%
[2]; adults
  dose leading to nausea, vomiting, stomach ache, then liver failure and acute liver necrosis: more than 10 g
[2]; children
  paediatric toxic dose: 200 mg/kg
[2]; taken in one go
  dose at which the fatality risk shall increase: over 20 g
